The target of this assay is HPK1 (MAP4K1) (Homo sapiens, UniProt Q92918). Kind of assay: FRET Assay for HPK1 (MAP4K1): one step binding assay, displacement of labeled tracer. Conditions: for inhibition at 1 µM: 1 μM compound; for inhibition at 1 µM / inhibition at 10 µM: FRET ratio 665/620, percent of control; for inhibition at 10 µM: 10 μM compound; for IC50: dose response curve, nonlinear regression. Summed up: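 Percent inhibition at 1.0 and 10.0 μM and IC50 by nonlinear regression were derived from loss of FRET signal versus control. The signal runs from Eu-anti-GST antibody (4 nM) bound to 10 nM HPK1 kinase to Alexa Fluor 647 Kinase Tracer 222 (20 nM), added after a 15-min on-ice compound pre-incubation. Binding then proceeded 1 h at room temperature in HEPES pH 7.5 buffer with 10 mM MgCl2, 1 mM EGTA, 0.01% Brij-35 and 3% DMSO.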

Molecules are shown by their SMILES. Some results are limits rather than exact numbers.

This note sets out measurements from US20230009626A1 (ICHNOS SCIENCES S.A., priority 2018, published 2023).

Chain of HPK1 (MAP4K1) (Q92918 whole entry): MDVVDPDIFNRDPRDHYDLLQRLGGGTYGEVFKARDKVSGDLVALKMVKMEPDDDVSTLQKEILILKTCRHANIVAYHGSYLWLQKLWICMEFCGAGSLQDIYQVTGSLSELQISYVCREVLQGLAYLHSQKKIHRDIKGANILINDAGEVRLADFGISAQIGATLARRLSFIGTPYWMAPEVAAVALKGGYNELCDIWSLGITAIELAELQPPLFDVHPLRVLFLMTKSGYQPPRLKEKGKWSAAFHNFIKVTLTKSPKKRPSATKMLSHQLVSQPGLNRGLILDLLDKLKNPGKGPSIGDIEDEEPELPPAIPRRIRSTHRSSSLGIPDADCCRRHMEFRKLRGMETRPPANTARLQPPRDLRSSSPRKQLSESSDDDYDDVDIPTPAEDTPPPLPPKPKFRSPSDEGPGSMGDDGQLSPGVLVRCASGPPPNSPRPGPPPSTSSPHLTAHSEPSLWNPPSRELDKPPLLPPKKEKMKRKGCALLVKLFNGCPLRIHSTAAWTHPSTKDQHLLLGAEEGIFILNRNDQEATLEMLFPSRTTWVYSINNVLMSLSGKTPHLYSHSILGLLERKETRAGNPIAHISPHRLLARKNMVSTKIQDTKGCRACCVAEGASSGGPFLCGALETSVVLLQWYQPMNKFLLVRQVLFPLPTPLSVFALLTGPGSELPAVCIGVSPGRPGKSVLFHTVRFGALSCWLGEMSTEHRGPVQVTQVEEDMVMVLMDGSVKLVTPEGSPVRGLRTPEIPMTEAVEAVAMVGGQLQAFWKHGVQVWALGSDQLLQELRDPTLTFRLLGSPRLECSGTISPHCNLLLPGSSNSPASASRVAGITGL

A word on the inhibition: it is how much of the control response was suppressed. As usually defined, the IC50 is the concentration that inhibits the measured activity by half. Lower therefore signals greater potency. With `COc1cccc(F)c1-c1cc2c(cc1C)NC(=O)/C2=C(/C)Nc1cnn(C)c1` [Example 21, (Z)-5-(2-Fluoro-6-methoxyphenyl)-6-methyl-3-(1-((1-methyl-1H-pyrazol-4-yl)amino)ethylidene)indolin-2-one], the inhibition at 1 µM is 83.1%, the inhibition at 10 µM came out at 80% and the IC50 is below 50 nM.
As for `C/C(Nc1cc(C)n(CC[C@@H](C)O)n1)=C1/C(=O)Nc2cnc(-c3cnccc3C)cc21` [Example 190, (R,Z)-3-(1-((1-(3-Hydroxybutyl)-5-methyl-1H-pyrazol-3-yl)amino)ethylidene)-5-(4-methylpyridin-3-yl)-1H-pyrrolo[2,3-c]pyridin-2(3H)-one], the inhibition at 1 µM amounted to 52.4%, the inhibition at 10 µM was determined as 68.6% and the IC50 is above 500 nM.
For `C/C(Nc1cc2n(n1)CC(=O)N(C(C)C)C2)=C1/C(=O)Nc2cnc(-c3cnccc3C)cc21` [Example 149, (Z)-5-Isopropyl-2-((1-(5-(4-methylpyridin-3-yl)-2-oxo-1H-pyrrolo[2,3-c]pyridin-3(2H)-ylidene)ethyl)amino)-4,5-dihydropyrazolo[1,5-a]pyrazin-6(7H)-one], in that order: 78.7%, 81.7% and below 50 nM.
Regarding `C/C(Nc1cc(C)n(CC(F)F)n1)=C1/C(=O)Nc2cnc(-c3cc(F)ccc3C)cc21` [Example 213, (Z)-3-(1-((1-(2,2-Difluoroethyl)-5-methyl-1H-pyrazol-3-yl)amino)ethylidene)-5-(5-fluoro-2-methylphenyl)-1H-pyrrolo[2,3-c]pyridin-2(3H)-one], the inhibition at 1 µM was determined as 60.2%, the inhibition at 10 µM came to 69.5% and the IC50 is below 50 nM.
For `C/C(Nc1ccn(C(C)(C)C(N)=O)n1)=C1/C(=O)Nc2cnc(-c3cnccc3C)cc21` [Example 97, (Z)-2-Methyl-2-(3-((1-(5-(4-methylpyridin-3-yl)-2-oxo-1H-pyrrolo[2,3-c]pyridin-3(2H)-ylidene)ethyl)amino)-1H-pyrazol-1-yl)propanamide], in that order: 59%, 59.9% and 100 to 500 nM.
For `C/C(Nc1cnn(CC(C)(C)O)c1)=C1/C(=O)Nc2cnc(-c3cnccc3C)cc21` [Example 78, (Z)-3-(1-((1-(2-Hydroxy-2-methylpropyl)-1H-pyrazol-4-yl)amino)ethylidene)-5-(4-methylpyridin-3-yl)-1H-pyrrolo[2,3-c]pyridin-2(3H)-one], in that order: 84.2%, 83.1% and below 50 nM.
